Data set [1] deals with NT5C2 (Homo sapiens, UniProt P49902, R367Q). Description: NT5C2 inhibition test (malachite green based assay detecting free inorganic phosphate). Type of data set: biochemical.
A short description of data set [2]: Dissolution of compound for NT5C2 inhibition test. Type of data set: physicochemical.
Data set [3] relates to NT5C2 R367Q mutant mouse lymphoblasts. Kind of data set: Cell viability of NT5C2 R367Q mutant mouse lymphoblasts in combination with 6-MP. Format: cell-based. As to conditions: for synergy with 6-MP to decrease cell viability: combination with 6-mercaptopurine, dose-dependent. The source says:
Various embodiments relate to the synthesis and characterization of NT5C2 inhibitors, HTP47 and HTP48, for treatment of chemotherapy resistant T-ALL.
[drawing 5] • to decrease cell viability of NT5C2 R367Q mutant mouse lymphoblasts. As such, various embodiments may be used in combination with existing chemotherapies to treat T-ALL and relapsed T-ALL.
Various embodiments relate to ongoing in vitro and in vivo functional characterization and development of optimized inhibitors. […] Control experiment were performed for dose optimization of HTP47 and HTP48 in C2-2 NT5C2 WT mouse lymphoblasts. […] Synthesis reactions for HTP47 and HTP48 are also provided.

NT5C2, sequence (P49902 whole entry R367Q): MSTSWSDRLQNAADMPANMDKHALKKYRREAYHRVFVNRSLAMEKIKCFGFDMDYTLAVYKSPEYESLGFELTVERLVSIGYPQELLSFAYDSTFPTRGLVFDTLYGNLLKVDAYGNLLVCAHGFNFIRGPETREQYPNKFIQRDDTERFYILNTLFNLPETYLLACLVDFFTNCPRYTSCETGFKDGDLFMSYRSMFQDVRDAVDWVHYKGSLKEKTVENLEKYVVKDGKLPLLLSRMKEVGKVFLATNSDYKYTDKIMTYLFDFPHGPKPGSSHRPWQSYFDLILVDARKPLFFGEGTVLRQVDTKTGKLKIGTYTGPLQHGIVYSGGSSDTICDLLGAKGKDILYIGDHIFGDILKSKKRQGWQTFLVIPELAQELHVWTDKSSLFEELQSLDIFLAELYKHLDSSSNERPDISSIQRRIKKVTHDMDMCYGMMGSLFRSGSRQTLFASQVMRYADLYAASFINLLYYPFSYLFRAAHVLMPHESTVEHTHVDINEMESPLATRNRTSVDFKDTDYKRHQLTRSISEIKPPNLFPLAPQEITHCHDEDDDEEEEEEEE

`NC(=O)c1c(NC(=O)c2ccc3[nH]cnc3c2)sc2c1CCC2` [HTP41]: the NT5C2 inhibitory activity entry in data set [1] (assay format not given) is reported as “have NT5C2 inhibitory activity”.

For the compound `N#Cc1c(NC(=O)c2ccc3[nH]cnc3c2)sc2c1CCCC2` [HTP22], in data set [1] (assay format not given), the NT5C2 inhibitory activity entry was “have NT5C2 inhibitory activity”.

As to `CCC1(CC)CCN(C(=O)c2c[nH]c(=O)c3ccccc23)CC1` [Formula 36], the NT5C2 inhibitory activity result in data set [1] (assay format not given) is on record as “no NT5C2 inhibition activity”.

Take `CC(C)CCNC(=O)c1c[nH]c(=O)c2ccccc12` [Formula 38]: the NT5C2 inhibitory activity entry in data set [1] (assay format not given) was “no NT5C2 inhibition activity was observed”. Besides, the dissolution result in data set [2] is “did not dissolve”.

Take `Cn1cnc2cc(C(=O)Nc3sc4c(c3C(N)=O)CCCC4)ccc21` [HTP48]: the values for the NT5C2 inhibitory activity result in data set [1] (assay format not given) and in data set [1] (malachite green based assay) were “have NT5C2 inhibitory activity” and “NT5C2 inhibitory activity”, respectively. In addition, the “synergy with 6-MP to decrease cell viability” value in data set [3] was “act synergistically with 6-MP in a dose-dependent manner”.

Regarding `NC(=O)c1c(NC(=O)c2ccc3[nH]cnc3c2)sc2c1CCCC2` [HTP2], the NT5C2 inhibitory activity result is recorded as “have NT5C2 inhibitory activity” in data set [1] (assay format not given) and “NT5C2 inhibitory activity” in data set [1] (malachite green based assay).

Turning to `Cc1nc2nc(C(=O)Nc3sc4c(c3C(N)=O)CCCC4)ccc2[nH]1` [HTP47], the NT5C2 inhibitory activity entry in data set [1] (assay format not given) is reported as “have NT5C2 inhibitory activity”; in data set [1] (malachite green based assay), “NT5C2 inhibitory activity”. Besides, in data set [3] (combination with 6-MP), the “potency of 6-MP in combination, comparison of HTP47 and HTP48” value was “greater potency of 6-MP in combination with HTP47 compared to HTP48”. For the same compound, the “synergy with 6-MP to decrease cell viability” value in data set [3] was “act synergistically with 6-MP in a dose-dependent manner”.

As for `CC1(CO)CCN(C(=O)c2c[nH]c(=O)c3ccccc23)CC1` [Formula 35], the NT5C2 inhibitory activity entry in data set [1] (assay format not given) is on record as “no NT5C2 inhibition activity”.

`CNC1CCN(C(=O)c2c[nH]c(=O)c3ccccc23)CC1` [Formula 37]: the NT5C2 inhibitory activity result in data set [1] (assay format not given) is “no NT5C2 inhibition activity”.

Consider `NCC1CCCN(C(=O)c2c[nH]c(=O)c3ccccc23)C1` (centres unmarked) [Formula 39], for which the NT5C2 inhibitory activity entry in data set [1] (assay format not given) was “no NT5C2 inhibition activity”.

Source of the values: patent US12377107B2, “NT5C2 inhibitors for the treatment of chemotherapy-resistant acute lymphoblastic leukemia” (THE TRUSTEES OF COLUMBIA UNIVERSITY IN THE CITY OF NEW YORK, priority 2019, dated 2025).
